Test results reported in patent US8148577B2, “Polyamines useful as anti-parasitic and anti-cancer therapeutics and as lysine-specific demethylase inhibitors” (The Johns Hopkins University, priority 2005, dated 2012).
pIC50: −log10 of the molar value.

Tests used:
Type in all cases: cell-based, human
[1] = system: H157 (non-small cell lung carcinoma) cells; test: Polyamine levels in H157 cells following treatment; conditions: for Polyamine Level, Spm: spermine (Spm)
Experimental: (§1) Putrescine, spermidine, and spermine polyamine levels in H157 and H82 cells following exposure to select compounds were performed. Polyamine levels were determined using the precolumn dansylation labeling, reverse-phase high-pressure liquid chromatography method as described by Kabra et al., J. Chromotography, 380:19 (1986). The results are show in Tables 6 and 11 for H157 and H82 cells respectively. The compound identifier, treatment concentration, observed polyamine level, and exposure time are listed in columns 1, 2, 3, and 4 respectively. Polyamine levels are reported as increased (inc), decrease (dec), or no change (N/C). In some case the specific levels of putrescine, spermidine, and/or spermine are listed.

[2] = system: H157 (non-small cell lung carcinoma) cells; test: 96 hr MTS dose response experiment in H157 cells; conditions: a range means IC50 lies between the two tested concentrations
Experimental: MTS dose response experiments in H157, H82, and A549 cells following a 96 hr exposure with select compounds were performed. MTS is a standard colorimetric assay used for measuring metabolic activity in cells. MTS experiments were performed by CellTiter 96® AQueuos One Solution Cell Proliferation Assay from Promega Corporation. Briefly, the cells were seeded at 3000 cells/well on a 96 well tissue culture plate containing 100 ul of medium/well and allowed to attach overnight. The medium was then aspirated and replaced with 100 ul of fresh medium containing the appropriate concentration of the compound being tested and incubated for 96 hrs at 37° C. and 5% CO2. Compounds are routinely tested at concentrations ranging from 0.1 micromolar to 50 micromolar. Wells not containing the test compound were present and used as a control. Following treatment, 20 ul of MTS reagent was added to each well and incubated at 37° C. for 1.5 hrs. The absorbance of each well was then measured at 490 nm and used to determine the metabolic activity of the cells in the presence of the test compound, relative to the control. IC50 values for the test compounds were extracted based on the results.
Note that the results for a 72 hr exposure in addition to the 96 hr exposure are shown for compound 49-TDW-29C in the H157 cells. […] FIG. 1 depicts the results of a 96 hr MTS dose response experiments for compound 46-TDW-23c in H157, A549, H82 and Beas2B cells. FIG. 2 depicts the results of a 96 hr MTS dose response experiments for compound 49-TDW-9 in H157, A549, H82 and Beas2B cells. FIG. 3 depicts the results of a 96 hr MTS dose response experiments for compound 42-TDW-21c in H157, A549, H82 and Beas2B cells. FIG. 4 depicts the results of a 96 hr MTS dose response experiments for compound 46-TDW-19c in H157, A549, H82 and Beas2B cells. FIG. 5 depicts the results of a 96 hr MTS dose response experiments for compound 49-TDW-17c in H157, A549, H82 and Beas2B cells. FIG. 6 depicts the results of a 96 hr MTS dose response experiments for compound 40-TDW-37 in H157, A549, H82 and Beas2B cells. FIG. 7 depicts the results of a 96 hr MTS dose response experiments for compound 42-TDW-4 in H157, A549, H82 and Beas2B cells. FIG. 8 depicts the results of a 96 hr MTS dose response experiments for compound 49-TDW-29c in H157, A549, H82 and Beas2B cells. FIG. 9 depicts the results of a 96 hr MTS dose response experiments for compound 49-TDW-32c in H157, A549, H82 and Beas2B cells. FIG. 10 depicts the results of a 96 hr MTS dose response experiments for compound 46-TDW-35c in H157, A549, H82 and Beas2B cells. FIG. 11 depicts the results of a 96 hr MTS dose response experiments for compound 39-TDW-3 in H157, A549, and H82 cells. FIG. 12 depicts the results of a 96 hr MTS dose response experiments for compound 39-TDW-12c in […], and A549 cells. FIG. 13 depicts the results of a 96 hr MTS dose response experiments for compound 39-TDW-20c in H157, and H82 cells. FIG. 14 depicts the results of a 96 hr MTS dose response experiments for compounds 39-TDw-47c and 39-TDW-43 in H157 cells. FIG. 15 depicts the results of a 96 hr MTS dose response experiments for compounds 42-TDW-9, 42-TDW-4c/6, 40-TDW-35, 42-TDW-38 and BENSpm in H157 cells. FIG. 16 depicts the results of a 96 hr MTS dose response experiments for compounds 46-TDW-34c, 42-TDW-12, 40-TDW-48, 46-TDW-44c and BENSpm in H157 cells. FIG. 17 depicts the results of a 96 hr MTS dose response experiments for compounds 42-TDW-20c, 46-TDW-22, 46-TDW-39, 49-TDW-29c and BENSpm in H157 cells. FIG. 18 depicts the results of a 96 hr MTS dose response experiments for compounds 39-TDW-43, 42-TDW-48c, 46-TDW-9, 46-TDW-23c and BENSpm in H157 cells. FIG. 19 depicts the results of a 96 hr MTS dose response experiments for compounds 42-TDW-35c, 46-TDW-44 and BENSpm in H157 cells.

H82 cells = test: Polyamine levels in H82 cells following treatment; conditions: 24 hr
Experimental: as §1

[3] = 10 uM, 24 hr, inc = increased, dec = decrease, N/C = no change
[4] = Homo sapiens, NCI-H157, 96 hr exposure

CCNCCCNCCCNCCCNCC [BENSpm, reference compound]
Polyamine Level [1, 3]: N/C

N=C(NCCCNCCCCNCCCNC(=N)NCCC(c1ccccc1)c1ccccc1)NCCC(c1ccccc1)c1ccccc1 [XBI-54-8B]
pIC50 [2, 4]: < 4.30

N=C(NCCCNCCCCCCCNCCCNC(=N)Nc1ccccc1)Nc1ccccc1 [B205′-1]
pIC50 [2, 4]: 4.30

O=C(CCc1nc2ccccc2[nH]1)NCCCNCCCNCCCNC(=O)CCc1nc2ccccc2[nH]1 [44-DHEJ-38]
pIC50 [2, 4]: 4.66

CCCCNC(C)CCNCCCCCCCNCCC(C)NCC (centres unmarked) [51-DHEJ-49C]
pIC50 [2, 4]: < 4.30

N=C(NCCCNCCCNCCCNC(=N)Nc1ccccc1)Nc1ccccc1 [B188-2]
pIC50 [2, 4]: 5.00 to 5.30

NCCCCCNCCCNCCCNCCCCN [YZ33035]
pIC50 [2, 4]: < 5.00

CCNCCCN(CCCNCC)CCCNCC [55-DHEJ-31C]
pIC50 [2, 4]: < 4.30

CCNCCCNCCCNCCCNC(C)C [DG-52-28]
pIC50 [2, 4]: 6.00

CCNCCCCNCCCNCCCNCC [YZ33050c]
pIC50 [2, 4]: ~6.00

CC(CCNCCCNCCC(C)NCc1cc(F)c(F)cc1F)NCc1cc(F)c(F)cc1F (centres unmarked) [44-DHEJ-5C]
pIC50 [2, 4]: < 4.51

CCNCCCNCCCCCNCCCN [44-DHEJ-49]
pIC50 [2, 4]: 5.30 to 6.00

CCCCNCCCNCCCNCCCNCC [ZQW-19]
Polyamine Level ([1]; 1 uM, 24 hr): N/C
Polyamine Level [1, 3]: dec ~50%
Polyamine Level (H82 cells; 0-10 uM): slow dec
Polyamine Level (H82 cells; 10 uM): dec ~50%

CC(CCNCCCNCCC(C)NCC1CC1)NCC1CC1 (centres unmarked) [55-DHEJ-35C]
pIC50 [2, 4]: 4.30 to 5.00

CCNCCCNCCCNCCC(C)N (centres unmarked) [55-DHEJ-7C]
pIC50 [2, 4]: < 4.30

O=C(NCCCNCCCNCCCNC(=O)c1nc2ccccc2[nH]1)c1nc2ccccc2[nH]1 [44-DHEJ-40C]
pIC50 [2, 4]: < 4.58

CCNCCCNCCCCC(C)NCCCNCC (centres unmarked) [55-DHEJ-24C]
pIC50 [2, 4]: < 4.30

CNC(=N)NCCCNCCCNCCCNC(=N)NC [B179-1]
pIC50 [2, 4]: 4.30 to 5.00

N=C(NCCCNCCCCNCCCNC(=N)NC(=N)NCC(c1ccccc1)c1ccccc1)NC(=N)NCC(c1ccccc1)c1ccccc1 [XBI-54-14B]
pIC50 [2, 4]: 4.30 to 5.00

N=C(NCCCNCCCCNCCCNC(=N)NC(=N)NCCC(c1ccccc1)c1ccccc1)NC(=N)NCCC(c1ccccc1)c1ccccc1 [XBI-54-13D]
pIC50 [2, 4]: 4.30 to 5.00

CCCCNCCCNCCCNCCCNCCCC [ZQW-14c]
Polyamine Level [1, 3]: slowly dec
Polyamine Level (H82 cells; 10 uM): slowly dec

CCNCCCNCCCNCCCCN [YZ33046]
pIC50 [2, 4]: < 5.00

CCNCCCCCNCCCNCCCNCC [51-DHEJ-B]
pIC50 [2, 4]: < 4.30

CCC(CC)CNCCCNCCCNCCCNCC(CC)CC [40-TDW-28]
pIC50 ([2]; 96 hr exposure): 4.30 to 5.00

CC(C)=CCNCCCNCCCNCCCNCC=C(C)C [SV-53-18C2]
pIC50 ([2]; 96 hr exposure): 4.30 to 5.00

CCNCCCN(CCCN)CCCCCCCNCCCN [ZQW-27-9]
Polyamine Level [1, 3]: N/C
Polyamine Level (H82 cells; 10 uM): dec

CC(CCNCCCCCCCNCCC(C)NCC(F)(F)F)NCC(F)(F)F (centres unmarked) [51-DHEJ-18]
pIC50 [2, 4]: 4.30 to 5.00

CCNCCCNCCCNCCCNC(C)CC (centres unmarked) [DG-52-27C]
pIC50 [2, 4]: 6.00 to 6.30

CNC(=N)NCCCNCCCCCCCNCCCNC(=N)NC [B181]
pIC50 [2, 4]: 5.00 to 5.30

NC1CCC(NCCCNCC2CC2)C1 (centres unmarked) [UNS-31-21c]
Polyamine Level [1, 3]: dec
Polyamine Level, Spm ([1]; 10 uM, 24 hr): same
Polyamine Level (H82 cells; 10 uM): slight inc

N=C(NCCCNCCCNCCCNC(=N)NC(=N)NCCC(c1ccccc1)c1ccccc1)NC(=N)NCCC(c1ccccc1)c1ccccc1 [XBI-54-12D]
pIC50 [2, 4]: 4.30 to 5.00

CC(C)CNCCCNCCCNCCCNCC(C)C [DG-52-29C]
pIC50 [2, 4]: < 4.30

CCNCCCNCCCCNCCC(c1ccccc1)c1ccccc1 [42-TDW-40c]
pIC50 [2, 4]: 5.00 to 5.30

C1CCC(CNCCCNCC2CCCC(CNCCCNCC3CCCCC3)C2)CC1 (centres unmarked) [UNS-31-7A]
Polyamine Level [1, 3]: slight dec
Polyamine Level (H82 cells; 10 uM): slight dec

CCNCCCNCCCNCCCCCN [51-DHEJ-C]
pIC50 [2, 4]: < 4.30

C/N=C(\NC)NCCCNCCCNCCCN/C(=N/C)NC [B182]
pIC50 [2, 4]: 5.00 to 5.30

CCC(CC)CNCCCCNCCCNCC(CC)CC [46-TDW-12]
pIC50 [2, 4]: < 4.30

N=C(NCCCNCCCCCCCNCCCNC(=N)NC(=N)NCCC(c1ccccc1)c1ccccc1)NC(=N)NCCC(c1ccccc1)c1ccccc1 [XBI-54-13B]
pIC50 [2, 4]: 4.30 to 5.00

N=C(NCCCNCCCNCCCNC(=N)NC(=N)NCC(c1ccccc1)c1ccccc1)NC(=N)NCC(c1ccccc1)c1ccccc1 [XBI-54-12C]
pIC50 [2, 4]: 4.30 to 5.00

c1cc2ccc3cccc4c(CCCCNCCCNCCCNCCCNCCCCc5cc6cccc7ccc8cccc5c8c76)cc(c1)c2c34 [40-TDW-26c]
pIC50 [2, 4]: 4.30 to 5.00

CCNCCCNCCCNCCCCNCC1CC1 [YZ33049]
pIC50 [2, 4]: ~6.00

C#CC(=O)NCCCNCCCNCCCNC(=O)C#C [44-DHEJ-41]
pIC50 ([2]; 96 hr exposure): 4.45 to 5.15

CCNCCCNCCCNCCC(C)NCC1CC1 (centres unmarked) [55-DHEJ-37C]
pIC50 [2, 4]: < 4.30

Fc1cc(F)c(CNCCCNCCCNCCCNCc2cc(F)c(F)cc2F)cc1F [44-DHEJ-10C]
pIC50 [2, 4]: < 4.54

NCCCCCCNCCCCCCNCCCc1nc2ccccc2[nH]1 [50-DHEJ-3C]
pIC50 [2, 4]: < 4.30

N=C(NCCCNCCCCNCCCNC(=N)NCC(c1ccccc1)c1ccccc1)NCC(c1ccccc1)c1ccccc1 [XBI-54-9B]
pIC50 [2, 4]: < 4.30

c1ccc(-c2ccccc2CNCCCCNCCCNCc2ccccc2-c2ccccc2)cc1 [42-TDW-35c]
pIC50 ([2]; 96 hr exposure): 5.30 to 6.00

CCNCCCNCCCCCNCCCNCC(C)CC (centres unmarked) [51-DHEJ-A]
pIC50 [2, 4]: 4.30 to 5.00

CCNCCCNCCCCCNCCCNCC [44-DHEJ-48C]
pIC50 [2, 4]: < 4.30

N=C(NCCCNCCCCCCCNCCCNC(=N)NC(=N)NCC(c1ccccc1)c1ccccc1)NC(=N)NCC(c1ccccc1)c1ccccc1 [XBI-54-11C]
pIC50 [2, 4]: 4.30 to 5.00

CCCCNCCCCNCCCCNCCCNCC [YZ33049c]
pIC50 [2, 4]: 5.00 to 6.00

CC(N)CCNCCCNCc1ccc(-c2ccccc2)cc1 (centres unmarked) [55-DHEJ-26]
pIC50 [2, 4]: < 4.30

C1CCCC(CNCCCNCCCNCCCNCC2CC2)CC1 [CPCHENSpm]
Polyamine Level [1, 3]: slight dec
Polyamine Level, Spm ([1]; 10 uM, 24 hr): inc
Polyamine Level (H82 cells; 10 uM): slight inc, and N/C

CCCCNCCCNCCCNCCCN [ZQW-16c]
Polyamine Level [1, 3]: slowly inc
Polyamine Level (H82 cells; 0-10 uM): slight inc
Polyamine Level (H82 cells; 10 uM): dec ~50%

COc1cc(C(C)(C)C)c(C(C)(C)C)cc1CNC(C)CCNCCCNCCC(C)NCc1cc(C(C)(C)C)c(C(C)(C)C)cc1OC (centres unmarked) [51-DHEJ-8]
pIC50 [2, 4]: < 4.30

Cc1c(CNCCCNCCCNCCCNCc2cccc(-c3ccccc3)c2C)cccc1-c1ccccc1 [40-TDW-48]
pIC50 ([2]; 96 hr exposure): 5.30 to 6.00

CCNCCCN(CCCN)CCCCCCCNCCCNCC1CCCCCC1 [ZQW-27-11C]
Polyamine Level ([1]; 10 uM, 96 hr): N/C
Polyamine Level (H82 cells; 10 uM): dec ~50%

NCCCCCNCCCNCCCNCCCCCN [YZ33041]
pIC50 [2, 4]: < 5.00
